From the supplement of paper PMC10627819

Tests used:
S. aureus Newman [1] = assay: fitness (endpoint OD595 vs no drug) (fraction); higher = more growth; details: one replicate
In short: (§1)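 Volumes were 30 µl per well, or 55 µl for S. pneumoniae, in 384-well plates inoculated at OD595 0.01. Media were TSB, LB Lennox or CY at 37 °C, and OD595 was read every 30 min for 14 h with first-reading background subtraction. Fitness is the ratio of optical density at stationary-phase entry to the robust mean of no-drug controls. That ratio is capped at 1.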

B. subtilis 168 [2] = assay: as above
In short: as §1

S. aureus DSM 20231 = assay: Bliss interaction score (quartile over a dose matrix) (fitness difference); higher = more antagonism (negative = synergy)
In short: (§2)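 Quartiles of the Bliss score were taken over technical, biological and donor/recipient replicates. That score is observed fitness minus the product of the single-drug fitness values, which were inferred from combination data. Fitness itself is OD595 at entry into stationary phase divided by the plate's robust no-drug mean, with a cap at 1.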

S. aureus Newman [3] = assay: as above
In short: as §2

B. subtilis 168 [4] = assay: as above
In short: as §2

S. pneumoniae D39V [5] = assay: as above
In short: as §2

S. pneumoniae D39V [6] = assay: fitness (endpoint OD595 vs no drug) (fraction); higher = more growth
In short: as §1
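For Bliss interaction score (quartile over a dose matrix) in this document: first quartile when negative (synergy) and third quartile when positive (antagonism).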

CO/N=C(\C(=O)N[C@@H]1C(=O)N2C(C(=O)O)=C(COC(N)=O)CS[C@H]12)c1ccco1 [Cefuroxime] + O=C(O[C@@H]1Cc2c(O)cc(O)cc2O[C@@H]1c1cc(O)c(O)c(O)c1)c1cc(O)c(O)c(O)c1 [EGCG]
fitness
Details	first compound 0.04875 µg/mL	first compound 0.0975 µg/mL	first compound 0.195 µg/mL
B. subtilis 168 [2], partner 6.25 µg/mL	0.74	0.667	0.438
B. subtilis 168 [2], partner 12.5 µg/mL	0.376	0.493	0.506
B. subtilis 168 [2], partner 25 µg/mL	0.249	0.219	0.17
S. aureus Newman [1], partner 12.5 µg/mL	0.885	0.801	0.879
S. aureus Newman [1], partner 25 µg/mL	0.767	0.773	0.756
S. aureus Newman [1], partner 50 µg/mL	0.688	0.617	0.561

fitness, B. subtilis 168 [2], one replicate
Details	first compound 0.39 µg/mL	first compound 0.78 µg/mL	first compound 1.562 µg/mL	first compound 3.125 µg/mL	first compound 6.25 µg/mL
partner 6.25 µg/mL	0.425	0.411	0.356	0.3	0.304
partner 12.5 µg/mL	0.461	0.436	0.195	0.236	0.279
partner 25 µg/mL	0.274	0.318	0.103	0.064	0.0477

Details	Bliss interaction score
B. subtilis 168 [4]	0.158
S. aureus DSM 20231	0.0989
S. aureus Newman [3]	0.0827
S. pneumoniae D39V [5]	0.0461

CO/N=C(\C(=O)N[C@@H]1C(=O)N2C(C(=O)O)=C(COC(C)=O)CS[C@H]12)c1csc(N)n1 [Cefotaxime] + C/C(=C\C(=O)OCCCCCCCCC(=O)O)C[C@@H]1OC[C@H](C[C@@H]2O[C@H]2[C@@H](C)[C@H](C)O)[C@@H](O)[C@H]1O [Pseudomonic acid]
fitness
Details	first compound 0.0018 µg/mL	first compound 0.0035 µg/mL	first compound 0.007 µg/mL	first compound 0.078 µg/mL	first compound 0.156 µg/mL	first compound 0.312 µg/mL
S. aureus Newman [1], partner 0.0313 µg/mL	–	–	–	0.054	0.0458	0.0509
S. aureus Newman [1], partner 0.0625 µg/mL	–	–	–	0.0409	0.0394	0.0414
S. aureus Newman [1], partner 0.125 µg/mL	–	–	–	0.0477	0.0707	0.0616
S. pneumoniae D39V [6], partner 0.03 µg/mL	0.978	0.962	0.962	–	–	–
S. pneumoniae D39V [6], partner 0.06 µg/mL	0.833	0.862	0.809	–	–	–
S. pneumoniae D39V [6], partner 0.12 µg/mL	0.551	0.56	0.517	–	–	–

Details	Bliss interaction score
B. subtilis 168 [4]	0.0549
S. aureus DSM 20231	0.0223
S. aureus Newman [3]	0.022
S. pneumoniae D39V [5]	0.0643

COc1cccc2c1C(=O)c1c(O)c3c(c(O)c1C2=O)C[C@@](O)(C(=O)CO)C[C@@H]3O[C@H]1C[C@H](N)[C@H](O)[C@H](C)O1 [Doxorubicin] + C/C(=C\C(=O)OCCCCCCCCC(=O)O)C[C@@H]1OC[C@H](C[C@@H]2O[C@H]2[C@@H](C)[C@H](C)O)[C@@H](O)[C@H]1O [Pseudomonic acid]
fitness
Details	first compound 0.25 µg/mL	first compound 0.5 µg/mL	first compound 0.625 µg/mL	first compound 1 µg/mL	first compound 1.25 µg/mL	first compound 2.5 µg/mL
S. aureus Newman [1], partner 0.0313 µg/mL	–	–	0.0603	–	0.0435	0.0003
S. aureus Newman [1], partner 0.0625 µg/mL	–	–	0.0314	–	0.0203	0.0075
S. aureus Newman [1], partner 0.125 µg/mL	–	–	0.0395	–	0.0395	0.0206
S. pneumoniae D39V [6], partner 0.03 µg/mL	0.916	0.893	–	0.887	–	–
S. pneumoniae D39V [6], partner 0.06 µg/mL	0.73	0.756	–	0.681	–	–
S. pneumoniae D39V [6], partner 0.12 µg/mL	0.484	0.435	–	0.381	–	–

Details	Bliss interaction score
B. subtilis 168 [4]	0.12
S. aureus DSM 20231	-0.0156
S. aureus Newman [3]	-0.0226
S. pneumoniae D39V [5]	-0.079
